Columns and labels:
[1] = Plasma protein binding, equilibrium dialysis, human plasma; assay type: in vitro ADME; conditions: pH 7.4, equilibrium dialysis (RED) 4 hours at 37° C., read-out: Plasma protein binding, fu, Human
Summary of the method: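 Compound at 10 μM in plasma dialysed against 67 mM phosphate buffer pH 7.4 for 4 h at 37° C. in RED device; unbound fraction from buffer and plasma levels by LC-MS/MS. Plasma stability checked in parallel over 4 h at 37° C. versus frozen control.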

[2] = Plasma protein binding, equilibrium dialysis, mouse plasma; assay type: in vitro ADME; conditions: pH 7.4, equilibrium dialysis (RED) 4 hours at 37° C., read-out: Plasma protein binding, fu, Mouse
Description: The fraction of unbound compound (fu) in plasma from human or other animal species was determined by equilibrium dialysis at 37° C. for 4 hours using the Rapid Equilibrium Dialysis (RED) device (ThermoFisher Scientific). The test compound at a concentration of 10 μM was added to plasma and dialyzed against isotonic phosphate buffer (67 mM, pH 7.4) over 4 hours at 37° C. After dialysis, compound concentrations in buffer and plasma were quantified by LC-MS/MS. In parallel the stability of the compound in plasma was determined by incubating drug-spiked plasma (10 μM) at 37° C. for 4 hours, meanwhile the control plasma sample was kept in the freezer. The concentration of the compound in both samples was quantified by LC-MS/MS (Waters Corp, Milford, MA, USA).

VIM-1 = VIM-1 (Pseudomonas aeruginosa, UniProt A0A0F7KYQ8); assay: MBL inhibition, FC-5 fluorescence assay, VIM-1; assay type: biochemical; conditions: FC-5 cephalosporin substrate, ranges of obtained pIC50, read-out: pIC50 VIM-1 (converted)
Summary of the method: (§1)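 Fluorescence read-out (380 nm excitation, 460 nm emission) tracks fluorophore liberated when each enzyme breaks down cephalosporin substrate FC-5. Initial rates across inhibitor concentrations, each run in quadruplicate on the plate, give normalized curves fitted with a variable Hill slope.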

NDM-1 = NDM-1 (Klebsiella pneumoniae, UniProt C7C422); assay: MBL inhibition, FC-5 fluorescence assay, NDM-1; assay type: biochemical; conditions: FC-5 cephalosporin substrate, fluorescence; ranges of obtained pIC50; read-out: pIC50 NDM-1 (converted)
NDM-1, sequence (C7C422 29-270, looked up, species assumed): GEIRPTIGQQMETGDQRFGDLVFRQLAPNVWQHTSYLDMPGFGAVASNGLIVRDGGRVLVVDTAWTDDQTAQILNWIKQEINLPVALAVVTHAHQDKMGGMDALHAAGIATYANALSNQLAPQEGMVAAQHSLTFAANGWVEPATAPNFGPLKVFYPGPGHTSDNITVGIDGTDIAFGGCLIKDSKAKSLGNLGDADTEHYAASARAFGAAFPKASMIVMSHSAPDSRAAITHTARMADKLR
Summary of the method: as §1

VIM-2 = VIM-2 (Escherichia coli, UniProt Q5U7L7); assay: MBL inhibition, FC-5 fluorescence assay, VIM-2; assay type: biochemical; conditions: FC-5 cephalosporin substrate, ranges of obtained pIC50, read-out: pIC50 VIM-2 (converted)
Summary of the method: as §1

[3] = Metabolic stability in human hepatocytes; assay type: in vitro ADME; conditions: cryopreserved human hepatocytes, 1 μM compound, 37° C., up to 90 min, read-out: Metabolic stability in hepatocytes, in vitro t1/2, Human
Description: (§2) Metabolic stability assays were performed in cryopreserved human and mouse hepatocytes. The hepatocytes were thawed and added to “Thawing media”, and centrifuged to pellet the hepatocytes. The cell pellet was taken up in Williams medium E (Invitrogen A1217601), the number of cells was calculated and adjusted to 1.0×10^6 cells/mi. The incubation was carried out on a heater-shaker at […], in a 24-well Picoplate (round bottom, PerkinElmer), using an incubation volume of […]. Thus, to obtain a final compound concentration of 1 μM, 0.7 μl of the 1 mM compound stock solution was pipetted to the wells of the plate. Reaction was initiated by adding 700 μl of cell suspension. Samples were incubated at 37° C. for […] and a zero sample was taken, i.e. 100 μl sample was removed to a 96-well plate and the reaction was quenched by adding 100 μl of 100% MeCN containing 50 nM Warfarin as an internal control. Consecutive samples were taken at time-points 5 min, 15 min, 30 min, 60 min, and 90 min. After finishing the experiment, samples were centrifuged at 3000 rpm for 15 min and before analysis by LC-MS/MS (Waters Corp, Milford, MA, USA).

[4] = Metabolic stability in mouse hepatocytes; assay type: in vitro ADME; conditions: cryopreserved mouse hepatocytes, 1 μM compound, 37° C., up to 90 min, read-out: Metabolic stability in hepatocytes, in vitro t1/2, Mouse
Description: as §2

IMP-1 = IMP-1 (Serratia marcescens, UniProt P52699); assay: MBL inhibition, FC-5 fluorescence assay, IMP-1; assay type: biochemical; conditions: FC-5 cephalosporin substrate, fluorescence; ranges of obtained pIC50; read-out: pIC50 IMP-1 (converted)
IMP-1, sequence (P52699 19-246, looked up, species assumed): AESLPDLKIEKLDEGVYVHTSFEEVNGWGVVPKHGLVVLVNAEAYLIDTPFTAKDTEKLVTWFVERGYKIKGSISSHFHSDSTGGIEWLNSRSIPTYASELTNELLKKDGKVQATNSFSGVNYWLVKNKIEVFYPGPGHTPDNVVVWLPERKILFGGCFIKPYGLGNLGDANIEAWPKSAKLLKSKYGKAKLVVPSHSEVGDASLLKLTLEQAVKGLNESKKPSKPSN
Summary of the method: as §1

Escherichia coli NDM-7 = assay: Antibiotic susceptibility testing (MIC), EC NDM-7; assay type: cell-based; conditions: agar or broth dilution (CLSI/EUCAST)
Description: (§3) Antibiotic susceptibility testing was performed using the agar or broth dilution method, in line with the Clinical and Laboratory Standards Institute (CLSI) and European Committee on Antimicrobial Susceptibility Testing (EUCAST) requirements.

[5] = tested on: Acinetobacter baumannii NDM-1; assay: Antibiotic susceptibility testing (MIC), AB NDM-1; assay type: cell-based; conditions: agar or broth dilution (CLSI/EUCAST)
Description: as §3

Escherichia coli NDM-1 = assay: Antibiotic susceptibility testing (MIC), EC NDM-1; assay type: cell-based; conditions: agar or broth dilution (CLSI/EUCAST)
Description: as §3

fraction unbound at 4 h, 10 μM [1]	fraction unbound at 4 h, 10 μM [2]	IC50 (VIM-1) [nM]	IC50 (NDM-1) [nM]	IC50 (VIM-2) [nM]	half-life at 1 μM [3] [h]	half-life at 1 μM [4] [h]	IC50 (IMP-1) [nM]	SMILES	MIC values EC NDM-7 (Escherichia coli NDM-7)	MIC values AB NDM-1 [5]	MIC values EC NDM-1 (Escherichia coli NDM-1)
0.05 to 0.25	0.05 to 0.25	> 10	1 to 10	< 0.1	> 6.67	> 6.67	> 10	CC(NC(=O)[C@H]1CC[C@H](CN)CC1)c1cccc2c(-c3ccc(CS(C)(=O)=O)c(F)c3)c(C(=O)O)[nH]c12 (mixture of isomers) [IC-99, 7-[1-[[4-(Aminomethyl)cyclohexanecarbonyl]amino]ethyl]-3-[3-fluoro-4-(methylsulfonylmethyl)phenyl]-1H-indole-2-carboxylic acid]	–	–	–
0.005 to 0.05	0.05 to 0.25	1 to 10	< 0.1	0.1 to 1	> 6.67	< 2.5	1 to 10	C[C@H](OCc1ccc(CN)cc1)c1cccc2c(-c3ccc(CS(C)(=O)=O)c(Cl)c3)c(C(=O)O)[nH]c12 (single isomer, unassigned) [IC-87]	–	–	–
0.005 to 0.05	< 0.005	> 10	0.1 to 1	> 10	> 6.67	< 2.5	1 to 10	C[C@@H](OCc1ccc(CN)cc1)c1cccc2c(-c3ccc(CS(C)(=O)=O)c(Cl)c3)c(C(=O)O)[nH]c12 (single isomer, unassigned) [IC-88]	–	–	–
0.005 to 0.05	0.05 to 0.25	> 10	< 0.1	1 to 10	> 6.67	< 2.5	> 10	CC(OCc1ccc(CN)cc1)c1cccc2c(-c3ccc(NS(C)(=O)=O)c(C#N)c3)c(C(=O)O)[nH]c12 (centres unmarked) [IC-86, 7-(1-((4-(Aminomethyl)benzyl)oxy)ethyl)-3-(3-cyano-4-(methylsulfonamido)phenyl)-1H-indole-2-carboxylic acid]	–	–	–
0.05 to 0.25	0.05 to 0.25	1 to 10	0.1 to 1	1 to 10	> 6.67	> 6.67	> 10	CC(OCC1CCNCC1)c1cccc2c(-c3ccc(CS(C)(=O)=O)c(F)c3)c(C(=O)O)[nH]c12 (centres unmarked) [IC-89, 3-(3-Fluoro-4-((methylsulfonyl)methyl)phenyl)-7-(1-(piperidin-4-ylmethoxy)ethyl)-1H-indole-2-carboxylic acid]	–	–	–
0.05 to 0.25	0.005 to 0.05	1 to 10	1 to 10	1 to 10	> 6.67	2.5 to 6.67	1 to 10	CC(Oc1ccc(CN)cc1)c1cccc2c(-c3ccc(CS(C)(=O)=O)c(F)c3)c(C(=O)O)[nH]c12 (centres unmarked) [IC-92, 7-(1-(4-(Ammoniomethyl)phenoxy)ethyl)-3-(3-fluoro-4-((methylsulfonyl)methyl)phenyl)-1H-indole-2-carboxylate]	–	–	–
0.05 to 0.25	0.005 to 0.05	> 10	0.1 to 1	1 to 10	> 6.67	> 6.67	> 10	CC(OC(=O)N1CCC(CN)CC1)c1cccc2c(-c3ccc(CS(C)(=O)=O)c(F)c3)c(C(=O)O)[nH]c12 (centres unmarked) [IC-95, 7-(1-((4-(Aminomethyl)piperidine-1-carbonyl)oxy)ethyl)-3-(3-fluoro-4-((methylsulfonyl)methyl)phenyl)-1H-indole-2-carboxylic acid]	–	–	–
0.05 to 0.25	0.05 to 0.25	> 10	1 to 10	1 to 10	> 6.67	< 2.5	> 10	CC(c1cccc2c(-c3ccc(CS(C)(=O)=O)c(F)c3)c(C(=O)O)[nH]c12)N(C)C(=O)c1ccc(CN)cc1 (centres unmarked) [IC-97, 7-(1-(4-(Aminomethyl)-N-methylbenzamido)ethyl)-3-(3-fluoro-4-((methylsulfonyl)methyl)phenyl)-1H-indole-2-carboxylic acid]	–	–	–

SMILES	fraction unbound at 4 h, 10 μM [1]	fraction unbound at 4 h, 10 μM [2]	IC50 (VIM-1) [nM]	IC50 (NDM-1) [nM]	IC50 (VIM-2) [nM]	half-life at 1 μM [3] [h]	half-life at 1 μM [4] [h]	IC50 (IMP-1) [nM]	MIC values EC NDM-7 (Escherichia coli NDM-7)	MIC values AB NDM-1 [5]	MIC values EC NDM-1 (Escherichia coli NDM-1)
C[C@@H](c1cccc2c(-c3ccc(NS(C)(=O)=O)c(C#N)c3)c(C(=O)O)[nH]c12)N1C[C@]2(C[C@@H](CN)C2)OC1=O [IC-16, 7-((1S)-1-(2-(aminomethyl)-6-oxo-5-oxa-7-azaspiro[3.4]octan-7-yl)ethyl)-3-(3-cyano-4-(methylsulfonamido)phenyl)-1H-indole-2-carboxylic acid]	0.05 to 0.25	0.05 to 0.25	1 to 10	< 0.1	0.1 to 1	> 6.67	> 6.67	> 10	A (A = MIC values ≤ 1)	B (B MIC values 2 ÷ 8)	A (A = MIC values ≤ 1)
C[C@@H](c1cccc2c(-c3c(F)cc(NS(C)(=O)=O)cc3F)c(C(=O)O)[nH]c12)n1cc(CN2CC(N)C2)oc1=O [IC-51, 7-[(1S)-1-{5-[(3-Aminoazetidin-1-yl)methyl]-2-oxo-2,3-dihydro-1,3-oxazol-3-yl}ethyl]-3-(2,6-difluoro-4-methanesulfonamidophenyl)-1H-indole-2-carboxylic acid]	0.05 to 0.25	0.005 to 0.05	> 10	1 to 10	1 to 10	–	–	> 10	B (B MIC values 2 ÷ 8)	C (C = MIC values > 8)	C (C = MIC values > 8)
C[C@@H](c1cccc2c(-c3ccc(NS(C)(=O)=O)c(C#N)c3)c(C(=O)O)[nH]c12)n1cc(CN2CC(N)C2)oc1=O [IC-55, 7-[(1S)-1-{5-[(3-aminoazetidin-1-yl)methyl]-2-oxo-2,3-dihydro-1,3-oxazol-3-yl}ethyl]-3-(3-cyano-4-methanesulfonamidophenyl)-1H-indole-2-carboxylic acid]	0.05 to 0.25	0.005 to 0.05	> 10	< 0.1	0.1 to 1	2.5 to 6.67	2.5 to 6.67	> 10	B (B MIC values 2 ÷ 8)	B (B MIC values 2 ÷ 8)	B (B MIC values 2 ÷ 8)
C[C@@H](c1cccc2c(-c3ccc(CS(C)(=O)=O)c(F)c3)c(C(=O)O)[nH]c12)n1cc(CN2CC(C)(N)C2)oc1=O [IC-68, (S)-7-(1-(5-((3-amino-3-methylazetidin-1-yl)methyl)-2-oxooxazol-3(2H)-yl)ethyl)-3-(3-fluoro-4-((methylsulfonyl)methyl)phenyl)-1H-indole-2-carboxylic acid]	–	–	1 to 10	< 0.1	0.1 to 1	> 6.67	> 6.67	> 10	A (A = MIC values ≤ 1)	B (B MIC values 2 ÷ 8)	A (A = MIC values ≤ 1)

Source: patent US20240246913A1, “2-CARBOXYL-INDOLE INHIBITORS OF METALLO-BETA-LACTAMASES” (Oxford University Innovation Limited, priority 2021, published 2024)
